17 molecules from article PMC12136037, “Type II kinase inhibitors that target Parkinson’s disease–associated LRRK2” (Science Advances, 2025) can be followed below.

Holding throughout (assay): DSF 100 kinase selectivity screen;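 note: compound tested at 20 µM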
Common to all, as to type: binding

The target of experiment [1] is T1, ~100 representative kinases (Homo sapiens, UniProt Q5VT25).
T1 construct: Recombinant protein kinase domains with a concentration of 2 μM
As to conditions: Protein CDC42BPA; average of three replicates. The method, boiled down: (§1)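 Each kinase domain, at 2 μM, is mixed with 20 μM test compound and SYPRO Orange in Hepes (20 mM, pH 7.5) with 500 mM NaCl. Temperature is then raised at 3°C/min and fluorescence-monitored unfolding yields the melting temperature change, ΔTm in degrees Celsius.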

Experiment [2] addresses T2, ~100 representative kinases (Homo sapiens, UniProt Q96SB4).
T2 construct: Recombinant protein kinase domains with a concentration of 2 μM
As to conditions: Protein SRPK1; DSF; average of three replicates. Summed up:
as §1

Experiment [3] has as its target T3, ~100 representative kinases (Homo sapiens, UniProt Q99683).
T3 construct: Recombinant protein kinase domains with a concentration of 2 μM
T3 sequence (Q99683 1-1374): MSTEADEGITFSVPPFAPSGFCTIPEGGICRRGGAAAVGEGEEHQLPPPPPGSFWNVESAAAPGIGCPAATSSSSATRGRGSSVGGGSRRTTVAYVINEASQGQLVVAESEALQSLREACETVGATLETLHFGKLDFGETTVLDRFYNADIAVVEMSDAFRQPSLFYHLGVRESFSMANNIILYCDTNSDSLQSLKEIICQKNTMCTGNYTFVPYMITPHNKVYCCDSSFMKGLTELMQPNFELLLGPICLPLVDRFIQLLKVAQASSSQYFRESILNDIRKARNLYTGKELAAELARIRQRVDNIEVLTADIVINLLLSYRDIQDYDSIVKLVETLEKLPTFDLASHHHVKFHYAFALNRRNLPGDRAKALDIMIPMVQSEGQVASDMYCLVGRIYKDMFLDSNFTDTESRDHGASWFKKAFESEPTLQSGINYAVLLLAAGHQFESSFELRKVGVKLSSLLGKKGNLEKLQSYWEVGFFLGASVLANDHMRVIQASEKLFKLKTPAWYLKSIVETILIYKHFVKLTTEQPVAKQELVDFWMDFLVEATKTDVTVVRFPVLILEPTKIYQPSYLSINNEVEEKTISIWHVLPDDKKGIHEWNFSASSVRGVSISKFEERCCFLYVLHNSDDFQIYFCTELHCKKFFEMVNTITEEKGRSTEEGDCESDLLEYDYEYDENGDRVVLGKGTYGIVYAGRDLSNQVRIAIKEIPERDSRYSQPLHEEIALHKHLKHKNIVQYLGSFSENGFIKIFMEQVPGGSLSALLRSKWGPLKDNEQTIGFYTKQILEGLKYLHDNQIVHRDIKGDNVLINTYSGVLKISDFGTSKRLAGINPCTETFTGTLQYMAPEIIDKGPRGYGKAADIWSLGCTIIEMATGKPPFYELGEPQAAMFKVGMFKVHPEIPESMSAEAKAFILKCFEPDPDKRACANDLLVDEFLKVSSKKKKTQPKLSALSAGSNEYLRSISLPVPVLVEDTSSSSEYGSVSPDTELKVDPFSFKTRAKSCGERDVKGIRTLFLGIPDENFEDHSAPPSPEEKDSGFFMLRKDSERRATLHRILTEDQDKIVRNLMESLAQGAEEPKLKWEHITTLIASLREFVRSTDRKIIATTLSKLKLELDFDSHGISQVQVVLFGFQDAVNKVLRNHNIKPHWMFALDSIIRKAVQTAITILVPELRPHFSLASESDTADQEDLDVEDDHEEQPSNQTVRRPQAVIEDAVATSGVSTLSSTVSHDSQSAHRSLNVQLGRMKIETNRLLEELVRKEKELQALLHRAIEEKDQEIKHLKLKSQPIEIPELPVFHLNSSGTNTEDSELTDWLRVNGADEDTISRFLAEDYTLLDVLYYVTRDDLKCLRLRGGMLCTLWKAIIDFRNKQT
As to conditions: protein MAP3K5; average of three replicates. The method, boiled down: as §1

Experiment [4] addresses T4, ~100 representative kinases (Homo sapiens, UniProt P54762).
T4 construct: Recombinant protein kinase domains with a concentration of 2 μM
T4 sequence (P54762 18-984): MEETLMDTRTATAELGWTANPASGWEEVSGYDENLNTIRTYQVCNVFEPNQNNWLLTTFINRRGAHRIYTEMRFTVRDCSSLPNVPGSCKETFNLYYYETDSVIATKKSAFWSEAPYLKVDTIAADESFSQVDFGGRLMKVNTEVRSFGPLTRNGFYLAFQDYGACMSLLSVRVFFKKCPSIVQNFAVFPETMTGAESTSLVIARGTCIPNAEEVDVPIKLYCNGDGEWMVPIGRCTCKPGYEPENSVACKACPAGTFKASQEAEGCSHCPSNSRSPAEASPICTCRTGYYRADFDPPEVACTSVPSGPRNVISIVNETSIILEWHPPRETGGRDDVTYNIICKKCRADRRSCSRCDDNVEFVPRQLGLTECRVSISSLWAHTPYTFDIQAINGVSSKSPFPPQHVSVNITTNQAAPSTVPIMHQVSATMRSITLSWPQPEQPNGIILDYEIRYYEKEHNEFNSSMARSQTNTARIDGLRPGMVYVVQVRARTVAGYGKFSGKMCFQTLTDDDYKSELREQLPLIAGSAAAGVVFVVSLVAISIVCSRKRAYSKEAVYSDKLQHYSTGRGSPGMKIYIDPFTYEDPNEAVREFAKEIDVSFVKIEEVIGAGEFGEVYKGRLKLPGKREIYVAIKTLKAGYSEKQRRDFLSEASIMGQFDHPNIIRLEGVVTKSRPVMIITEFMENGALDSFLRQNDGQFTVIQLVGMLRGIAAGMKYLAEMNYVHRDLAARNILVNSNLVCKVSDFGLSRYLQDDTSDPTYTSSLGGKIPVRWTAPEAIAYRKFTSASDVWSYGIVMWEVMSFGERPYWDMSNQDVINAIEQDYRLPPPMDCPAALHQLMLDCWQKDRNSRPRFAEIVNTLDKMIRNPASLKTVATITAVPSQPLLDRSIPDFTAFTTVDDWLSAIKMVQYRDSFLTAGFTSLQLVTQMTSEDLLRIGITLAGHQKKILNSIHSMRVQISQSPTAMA
As to conditions: Protein EPHB1; average of three replicates. Summed up: as §1

The target of experiment [5] is T5, ~100 representative kinases (Homo sapiens, UniProt P28482).
T5 construct: Recombinant protein kinase domains with a concentration of 2 μM
As to conditions: protein MAPK1; average of three replicates. Summed up: as §1

T5 sequence (P28482 whole entry, the tested form may be a part): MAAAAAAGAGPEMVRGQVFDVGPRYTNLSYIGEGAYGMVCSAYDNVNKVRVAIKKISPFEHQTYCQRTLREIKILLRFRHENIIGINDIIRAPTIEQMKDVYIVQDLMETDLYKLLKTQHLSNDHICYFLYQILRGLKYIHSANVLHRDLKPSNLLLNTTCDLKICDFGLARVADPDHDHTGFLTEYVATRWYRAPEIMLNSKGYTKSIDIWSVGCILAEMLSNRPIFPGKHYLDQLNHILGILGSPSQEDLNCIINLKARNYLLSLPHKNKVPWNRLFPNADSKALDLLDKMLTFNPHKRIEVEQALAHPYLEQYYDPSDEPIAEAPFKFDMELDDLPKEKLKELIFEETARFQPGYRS
T2 sequence (Q96SB4 whole entry, the tested form may be a part): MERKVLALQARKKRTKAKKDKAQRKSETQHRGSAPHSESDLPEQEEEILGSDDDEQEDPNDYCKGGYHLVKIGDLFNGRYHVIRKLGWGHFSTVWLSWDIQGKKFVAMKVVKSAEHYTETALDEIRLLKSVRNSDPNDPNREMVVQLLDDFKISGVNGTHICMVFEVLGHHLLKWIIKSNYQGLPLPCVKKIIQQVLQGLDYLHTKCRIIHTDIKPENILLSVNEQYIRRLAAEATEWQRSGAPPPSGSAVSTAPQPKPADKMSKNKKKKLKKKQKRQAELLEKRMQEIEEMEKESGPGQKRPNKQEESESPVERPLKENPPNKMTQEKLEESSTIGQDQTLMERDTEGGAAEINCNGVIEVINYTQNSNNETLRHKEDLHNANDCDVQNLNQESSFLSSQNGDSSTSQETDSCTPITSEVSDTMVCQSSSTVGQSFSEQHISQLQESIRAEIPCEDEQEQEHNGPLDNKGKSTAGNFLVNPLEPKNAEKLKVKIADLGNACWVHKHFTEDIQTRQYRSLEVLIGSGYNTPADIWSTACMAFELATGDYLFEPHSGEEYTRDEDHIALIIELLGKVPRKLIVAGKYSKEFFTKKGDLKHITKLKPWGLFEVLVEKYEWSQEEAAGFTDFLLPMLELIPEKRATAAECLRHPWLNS
T1 sequence (Q5VT25 whole entry, the tested form may be a part): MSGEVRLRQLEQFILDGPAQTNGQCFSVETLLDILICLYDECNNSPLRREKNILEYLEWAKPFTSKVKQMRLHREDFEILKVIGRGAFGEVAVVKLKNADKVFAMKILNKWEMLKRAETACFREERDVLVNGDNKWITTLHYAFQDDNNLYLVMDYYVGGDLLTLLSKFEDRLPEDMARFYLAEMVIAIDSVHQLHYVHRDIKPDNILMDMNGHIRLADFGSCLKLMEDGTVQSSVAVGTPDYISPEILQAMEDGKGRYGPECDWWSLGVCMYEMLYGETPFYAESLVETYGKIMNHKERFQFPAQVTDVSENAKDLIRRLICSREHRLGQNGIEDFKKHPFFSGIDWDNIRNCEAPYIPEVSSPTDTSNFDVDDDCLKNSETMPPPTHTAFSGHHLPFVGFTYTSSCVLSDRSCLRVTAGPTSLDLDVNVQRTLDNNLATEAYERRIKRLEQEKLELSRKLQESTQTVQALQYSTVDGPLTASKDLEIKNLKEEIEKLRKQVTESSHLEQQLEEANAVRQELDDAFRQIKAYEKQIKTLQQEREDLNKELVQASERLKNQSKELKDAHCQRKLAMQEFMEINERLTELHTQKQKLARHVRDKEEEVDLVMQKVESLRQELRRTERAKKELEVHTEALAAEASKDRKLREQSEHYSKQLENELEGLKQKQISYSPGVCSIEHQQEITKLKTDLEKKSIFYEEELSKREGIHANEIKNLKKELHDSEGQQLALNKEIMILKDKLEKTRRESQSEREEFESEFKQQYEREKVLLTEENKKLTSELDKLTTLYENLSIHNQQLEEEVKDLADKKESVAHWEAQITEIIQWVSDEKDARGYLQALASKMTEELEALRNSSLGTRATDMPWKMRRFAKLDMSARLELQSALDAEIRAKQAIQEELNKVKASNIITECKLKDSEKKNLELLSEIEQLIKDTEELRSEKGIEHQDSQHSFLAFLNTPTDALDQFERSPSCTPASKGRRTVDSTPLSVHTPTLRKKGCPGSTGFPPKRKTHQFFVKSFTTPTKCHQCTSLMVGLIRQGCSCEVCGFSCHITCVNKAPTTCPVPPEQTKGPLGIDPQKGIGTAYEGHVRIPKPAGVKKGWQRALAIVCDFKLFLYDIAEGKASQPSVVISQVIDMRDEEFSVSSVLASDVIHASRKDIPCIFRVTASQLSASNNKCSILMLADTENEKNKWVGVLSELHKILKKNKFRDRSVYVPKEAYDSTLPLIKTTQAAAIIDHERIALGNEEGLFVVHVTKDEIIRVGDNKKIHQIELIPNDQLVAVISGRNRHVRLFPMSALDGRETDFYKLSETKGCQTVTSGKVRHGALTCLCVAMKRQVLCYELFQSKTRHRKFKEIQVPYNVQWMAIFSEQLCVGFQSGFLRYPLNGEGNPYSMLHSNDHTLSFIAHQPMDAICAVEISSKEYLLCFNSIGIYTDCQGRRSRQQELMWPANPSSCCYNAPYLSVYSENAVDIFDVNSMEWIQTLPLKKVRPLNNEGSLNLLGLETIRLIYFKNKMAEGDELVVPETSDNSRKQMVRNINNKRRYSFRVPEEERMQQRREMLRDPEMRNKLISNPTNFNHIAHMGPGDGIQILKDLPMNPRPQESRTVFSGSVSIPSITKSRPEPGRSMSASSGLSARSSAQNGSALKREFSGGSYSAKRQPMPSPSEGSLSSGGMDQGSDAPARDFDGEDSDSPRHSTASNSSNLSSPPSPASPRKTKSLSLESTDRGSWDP

Regarding `COc1cc2c(Oc3ccc(NC(=O)C4(C(=O)Nc5ccc(F)cc5)CC4)cc3F)ccnc2cc1OCCCN1CCOCC1` [Foretinib, reference compound], the dTm is reported as 0.32 K in experiment [1]; 7.77 K in experiment [2]; 2.33 K in experiment [3]; 12.70 K in experiment [4]; 0.0844 K in experiment [5].

Regarding `Cc1ccc(-n2nc(C(C)(C)C)cc2NC(=O)Nc2cccc(-c3c[nH]c4nc(Cl)nc(N5CCOCC5)c34)c2)cc1` [Compound 30], the dTm in experiment [1] was 0.77 K; in experiment [2], 4.87 K; in experiment [3], 1.60 K; in experiment [4], -0.80 K; in experiment [5], -0.99 K.

As to `CC(C)(C)c1cccc(NC(=O)C2(C(=O)Nc3cccc(-c4c[nH]c5ncnc(N6CCOCC6)c45)c3)CC2)c1` [Compound 22], the dTm in experiment [1] is recorded as -0.53 K; in experiment [2] it was 9.79 K; in experiment [3] it was 2.56 K; in experiment [4], -3.38 K; in experiment [5] it was 0.30 K.

As to `COc1ccc(NC(=O)C2(C(=O)Nc3cccc(-c4c[nH]c5ncnc(N6CCOCC6)c45)c3)CC2)cc1` [Compound 16], the dTm in experiment [1] is given as -1.10 K; in experiment [2] it was 3.35 K; in experiment [3], 0.46 K; in experiment [4], 0.79 K; in experiment [5], -0.34 K.

Regarding `CC(=O)N1CCN(c2nc(Cl)nc3[nH]cc(-c4cccc(NC(=O)Nc5cc(C(C)(C)C)nn5-c5ccc(C)cc5)c4)c23)CC1` [Compound 31], the dTm is recorded as 0.50 K in experiment [1]; 7.78 K in experiment [2]; 1.23 K in experiment [3]; 0.39 K in experiment [4]; -0.85 K in experiment [5].

Regarding `Cc1cc(NC(=O)C2(C(=O)Nc3ccc(F)cc3)CC2)cc(-c2c[nH]c3ncnc(N4CCOCC4)c23)c1` [Compound 6], the dTm was -0.90 K in experiment [1]; 7.72 K in experiment [2]; 4.24 K in experiment [3]; 1.49 K in experiment [4]; 0.01 K in experiment [5].

On to `O=C(Nc1cccc(-c2c[nH]c3ncnc(N4CCOCC4)c23)c1)C1(C(=O)Nc2ccc(F)c(Br)c2F)CC1` [Compound 26], for which the dTm was -0.44 K in experiment [1]; 4.06 K in experiment [2]; 3.03 K in experiment [3]; -6.10 K in experiment [4]; -0.03 K in experiment [5].

Take `O=C(Nc1cccc(-c2c[nH]c3ncnc(N4CCOCC4)c23)c1)C1(C(=O)Nc2cccc3c2CCC3)CC1` [Compound 11]: the dTm in experiment [1] is reported as -1.26 K; in experiment [2] it was 6.49 K; in experiment [3], 3.33 K; in experiment [4], -11.24 K; in experiment [5], 1.31 K.

In the case of `Cn1cc(-c2c[nH]c3ncnc(N4CCOCC4)c23)cc1C#N` [PFE-360], the dTm in experiment [1] is reported as -1.84 K; in experiment [2], -0.23 K; in experiment [3], 15.45 K; in experiment [4], -0.08 K; in experiment [5], 0.55 K.

With `C[C@@H]1CN(c2cc(-c3n[nH]c4ccc(OC5(C)CC5)cc34)ncn2)C[C@H](C)O1` [MLi2], the dTm was -0.93 K in experiment [1]; 0.11 K in experiment [2]; 3.65 K in experiment [3]; -0.37 K in experiment [4]; 0.49 K in experiment [5].

Regarding `O=C(Nc1ccc(F)cc1)C1(C(=O)Nc2cccc(-c3c[nH]c4ncnc(N5CCOCC5)c34)c2)CC1` [Compound 2], the dTm is reported as -0.78 K in experiment [1]; 10.56 K in experiment [2]; 3.63 K in experiment [3]; 3.27 K in experiment [4]; -0.20 K in experiment [5].

Turning to `CCSc1nc(NC)c2c(-c3cccc(NC(=O)Nc4cc(C(C)(C)C)nn4-c4ccc(C)cc4)c3)c[nH]c2n1` [Compound 32], the dTm in experiment [1] turned out to be 0.69 K; in experiment [2] it was 0.80 K; in experiment [3], 0.73 K; in experiment [4] it was 0.21 K; in experiment [5], 0.25 K.

Turning to `O=C(Nc1cccc(-c2c[nH]c3ncnc(N4CCOCC4)c23)c1)C1(C(=O)Nc2ccc(F)c(Br)c2)CC1` [Compound 19], the dTm in experiment [1] is 0.14 K; in experiment [2], 7.58 K; in experiment [3] it was 5.22 K; in experiment [4] it was 1.85 K; in experiment [5], -0.09 K.

`COc1cc(NC(=O)C2(C(=O)Nc3cccc(-c4c[nH]c5ncnc(N6CCOCC6)c45)c3)CC2)ccc1F` [Compound 21]: the dTm in experiment [1] was -1.17 K; in experiment [2], 11.40 K; in experiment [3] it was 2.37 K; in experiment [4], 1.66 K; in experiment [5], -0.09 K.

For `Cc1cc(NC(=O)C2(C(=O)Nc3cccc(-c4c[nH]c5ncnc(N6CCOCC6)c45)c3)CC2)ccc1F` [Compound 20], the dTm is on record as -1.13 K in experiment [1]; 13.77 K in experiment [2]; 4.77 K in experiment [3]; 4.46 K in experiment [4]; 0.024 K in experiment [5].

For `O=C(Nc1cccc(-c2c[nH]c3ncnc(N4CCOCC4)c23)c1)C1(C(=O)Nc2ccc(F)cc2F)CC1` [Compound 23], the dTm in experiment [1] is reported as -1.22 K; in experiment [2], 6.35 K; in experiment [3], 2.39 K; in experiment [4], 2.11 K; in experiment [5], -0.16 K.

For the molecule `Cc1ccc(-n2nc(C(C)(C)C)cc2NC(=O)Nc2cccc(-c3c[nH]c4ncnc(N5CCOCC5)c34)c2)cc1` [Compound 29], the dTm in experiment [1] is -0.10 K; in experiment [2] it was 11.63 K; in experiment [3] it was 4.49 K; in experiment [4], 5.08 K; in experiment [5], -0.31 K.
